From patent US20040063626A1 (priority 2000, published 2004)

System: C57BL/6 mice
Experiment: Hair regrowth test on shaved backs of C57BL/6 mice
Assay type: in vivo
Conditions: 100 μl (0.1% w/v) applied over hair removed area once a day for 30 days; female C57BL/6 mice
Source text: C57BL/6 mice (female), 42˜49 days old, were used in this test.
First of all, mice were removed of hair on their backs using an electric shaver, and weighed. The mice were divided into several groups with weights equally distributed. […] The degree of hair growth was observed by naked eye and the back sides of the mice were photographed.

Substance	degree of hair growth observed by naked eye (hair regrowth effect)
Cyclosporin A 4,7-bis(thioamide)	no significant effect
Cyclosporin A 4-thioamide	no significant effect
